The values that follow come from ChEMBL document CHEMBL3044667, “Insecticidal activities of crude extracts and phospholipids from Chenopodium ficifolium against melon and cotton aphid, Aphis gossypii” (2010).

The structures appear in SMILES notation. Calls of active or inactive are those of the source. The rule behind the calls is not given here.

In test [1] the test system is Aphis gossypii. In words: Insecticidal activity against Aphis gossypii (cotton aphid) infested fourth-leaf stage cucumber seedlings followed by compound exposure at 1000 ug/ml assessed as induction of insect death on leaves after 48 hr post compound treatment relative to untreated control. In kind it is functional, organism-based.
For test [2], the system named is Aphis gossypii. In words: Insecticidal activity against Aphis gossypii (cotton aphid) infested fourth-leaf stage cucumber seedlings followed by compound exposure assessed as insect control after 48 hr post compound treatment relative to untreated control. The test is classed as functional, organism-based.

For `CCCCCCCCCCCCC=CCC(=O)OC(COC(=O)CCCCCCCCCCCCCCC)COP(=O)(O)OCC(O)CO` (configuration not stated), the result in test [1] was Active. The Activity entry in test [2] was “Dose-dependent effect”.
